Reference: US8173654B2, “Triazolopyridazine compounds” (Janssen Pharmaceutica N.V., priority 2005, dated 2012)

Tested on: S114 tumors
Assay: S114 tumor model
Assay type: in vivo, athymic nude mice
Conditions: 100 mg/kg p.o. q.d., four consecutive days, five mice
Description: Female athymic nude mice were inoculated subcutaneously in the left inguinal region of the thigh with 5×10^6 S114 cells in a delivery volume of 0.1 mL. Tumors were allowed to grow to for five days. Mice were dosed orally at 100 mg/kg compound in 20% HPBCD or with vehicle (20% HPBCD, control group). Dosing was continued for 4 consecutive days. On the day of study termination, tumors were immediately excised intact and weighed, with final tumor wet weight (grams) serving as a primary efficacy endpoint.
Female athymic nude mice (CD-1, nu/nu, 9-10 weeks old) were obtained from Charles River Laboratories (Wilmington, Mass.) and were maintained according to NIH standards. All mice were group housed (5 mice/cage) under clean-room conditions in sterile micro-isolator cages on a 12-hour light/dark cycle in a room maintained at 21-22° C. and 40-50% humidity. […]
The murine NIH 3T3 derived cell line S114, which has been engineered to over-express both Human Growth Factor (HGF) and the human c-Met receptor, was propagated in DMEM media (Life Technologies, Bethesda, Md.). Immediately prior to injection, cells were washed counted and resuspended in PBS. […]
Mice were dosed orally at 100 mg/kg compound in 20% HPBCD or with vehicle (20% HPBCD, control group). […] Body weight was measured at the end of the study and a loss of body weight >10% was used as an indication of lack of compound tolerability. […]

Cn1cc(-c2ccc3nnc(C(F)(F)c4ccc5ncccc5c4)n3n2)cn1 [Example 61, 6-{Difluoro-[6-(1-methyl-1H-pyrazol-4-yl)-[1,2,4]triazolo[4,3-b]pyridazin-3-yl]-methyl}-quinoline]
mice with tumors regressed to non-palpable, non-detectable tumors by the end of the study: three of the five mice
regression of S114 tumors: regressed in all five mice
